The text below walks through data of patent publication US12281118B2, “Nitrogen-containing fused heterocyclic SHP2 inhibitor compound, preparation method, and use” (SHANGHAI RINGENE BIOPHARMA CO., LTD., priority 2018, dated 2025).

Where two headings read alike, the source gives them in different places. Some results are limits rather than exact numbers.

One series addresses SHP2 enzyme (Homo sapiens (Human), UniProt Q06124). The series can be described thus: Inhibitory activity against SHP2 enzyme (Caliper conversion rate). Type of series: biochemical. The settings on record: read-out: SHP2 Enzyme Inhibition IC50 Value. How it is done:
(1) Preparing 1×Reaction Buffer according to the BPS Biosciences' Instructions for Use of the SHP2 enzyme. (2) Preparing a compound concentration gradient: Test the test compound at 10 μM under 3× dilution for 10 concentrations, diluting to a 100% dimethyl sulfoxide solution at a 100× final concentration in a 384-well plate, and diluting the compound with Precision 4× for 10 concentrations. Transferring 250 nL of the compound at the 100× final concentration to a target plate OptiPlate-384F using a dispenser Echo 550. […] (3) Preparing the activation peptide solution at a 5× final concentration with the 1×Reaction Buffer, adding 5 μL of the solution to a reaction plate, respectively, and centrifuging at 1000 rpm for 1 min. (4) Preparing an enzyme solution at a 2.5× final concentration with the 1×Reaction Buffer, adding 10 μL of the solution to the reaction plate, respectively, centrifuging at 1000 rpm for 1 min, and incubating at room temperature for 60 min. (5) Preparing a substrate peptide solution at a 2.5× final concentration with the 1×Reaction Buffer, centrifuging at 1000 rpm for 1 min, and incubating at room temperature for 30 min. (6) Adding 30 μL of stop test solution to stop the reaction, centrifuging at 1000 rpm for […], and mixing well by shaking. (7) Reading the conversion rate with a Caliper EZ Reader. (7) Data analysis:
Wherein: Conversion %/_sample is the reading of a conversion rate of a sample; Conversion %_min: mean of negative control wells, which represents the reading of a conversion rate in absence of enzyme activity wells; Conversion %_max: mean of a ratio of positive control wells, which represents the reading of a conversion rate in absence of compound inhibition wells.

The next series concerns MV4-11 leukemia cells. Put plainly: Inhibition of proliferation of MV4-11 leukemia cells (CellTiter-Glo, 72 h). Particulars: Homo sapiens, MV4-11, 72 h, read-out: IC50 value, MV4-11 cell proliferation. It counts as cell-based. As for the experimental part: Specific experimental procedures: 1) At Day 0: Inoculating trypsin-digested cells in 96-well plate and suspending the plate in cell culture medium; measure cell density using an automatic cell counter, diluting the cells with the culture medium to appropriate density, adding 100 μl of cell suspension in the 96-well plate, and incubating a cell-free medium as a control well in a cell incubator with […] at 37° C. overnight; 2) Day 1: Treating test compounds of the cells using a drug for a total of 8 concentrations, and diluting at a 3× concentration, wherein 10 μM is a starting test concentration of the test compounds. […] IC50 values are obtained by a four-parameter regression using software attached to the plate reader (the specific results are shown in Table 2).
On the technique in general: ATP-based viability assays read luminescence as a measure of living cells.

The target in a further series is CYP1A2 (Homo sapiens (Human), UniProt P05177). The series can be described thus: CYP direct inhibition test (DI test) in human liver microsomes. It counts as in vitro ADME. How it is done: (§1) Direct inhibition test (DI test): Incubating 100 μL of human liver microsomes (final concentration 0.2 mg/mL) containing NADPH (final concentration 1 mM), 10 μM of compound, a positive inhibitor cocktail (ketoconazole 10 μM, quinidine 10 μM, sulfaphenazole 100 μM, a-naphthoflavone 10 μM, and tranylcypromine 1,000 μM), a negative control (BPS containing 0.1% dimethyl sulfoxide) and a mixed probe substrate (midazolam 10 μM, testosterone 100 μM, dextromethorphan 10 μM, diclofenac 20 μM, phenacetin 100 μM, and mephenytoin 100 μM) for direct inhibition, and terminating the reaction after 20 min of the incubation. Calculating the relative enzyme activity by measuring the relative production of metabolites.
(In general: Liver microsomes are a subcellular fraction often used to study metabolism.)

In another series the target is CYP2C19 (Homo sapiens (Human), UniProt P33261). Put plainly: biochemical. It counts as in vitro ADME. How it is done: as §1
For another series, the target named is CYP2C9 (Homo sapiens (Human), UniProt P11712). The series can be described thus: biochemical. It counts as in vitro ADME. As for the experimental part:
as §1

Another series deals with CYP2D6 (Homo sapiens (Human), UniProt P10635). Put plainly: biochemical. It counts as in vitro ADME. As for the experimental part:
as §1

A further series has as its target CYP3A4 (Homo sapiens (Human), UniProt P08684). The series can be described thus: biochemical. Type of series: in vitro ADME. As for the experimental part: as §1
Series [1] is described as follows: In vivo pharmacokinetic parameters. The settings on record: plasma, po; for AUC: read-out: Area under the curve AUC; for bioavailability: read-out: Bioavailability F; for half-life: read-out: Half-life T1/2 (converted); for Cmax: read-out: Maximum plasma concentration Cmax. The arrangement: AUC: unit not given here. As for the experimental part:
Dividing 6 SPF-grade laboratory animals into two groups, and preparing the test compound to a suitable solution or suspension; intravenously administering animals in one group, and orally administering animals in the other group. Collecting blood via jugular vein puncture at approximately 0.2 mL/time point for each sample, anticoagulating with sodium heparin, wherein the time points for blood collection is as follows: pre-dose, and 5, 15 and 30 min, and 1, 2, 4, 6, 8, and 24 h post-dose; placing the collected blood samples on ice, separating plasma by centrifugation (centrifugation conditions: 8,000 rpm, 6 min, 2-8° C.), and storing the collected plasma at −80° C. before analysis. Analyzing plasma samples using LC-MS/MS.
Based on the plasma concentration data of the drug, pharmacokinetic parameters such as AUC0-t, AUC0-∞, MRT0-∞, Cmax, Tmax, T1/2 and Vd of a test sample, as well as mean and standard deviations thereof are calculated using a pharmacokinetic calculation software WinNonlin 5.2 noncompartmental model. In addition, the bioavailability (F) is calculated by the following formula.
For samples with concentrations below the lower limit of quantification, samples taken before reaching Cmax should be calculated as zero for calculations of the pharmacokinetic parameter, and samples taken at sampling points after reaching Cmax should be calculated as non-quantifiable (BLQ) (specific results are shown in Table 3).

CYP2C9, sequence (P11712 whole entry): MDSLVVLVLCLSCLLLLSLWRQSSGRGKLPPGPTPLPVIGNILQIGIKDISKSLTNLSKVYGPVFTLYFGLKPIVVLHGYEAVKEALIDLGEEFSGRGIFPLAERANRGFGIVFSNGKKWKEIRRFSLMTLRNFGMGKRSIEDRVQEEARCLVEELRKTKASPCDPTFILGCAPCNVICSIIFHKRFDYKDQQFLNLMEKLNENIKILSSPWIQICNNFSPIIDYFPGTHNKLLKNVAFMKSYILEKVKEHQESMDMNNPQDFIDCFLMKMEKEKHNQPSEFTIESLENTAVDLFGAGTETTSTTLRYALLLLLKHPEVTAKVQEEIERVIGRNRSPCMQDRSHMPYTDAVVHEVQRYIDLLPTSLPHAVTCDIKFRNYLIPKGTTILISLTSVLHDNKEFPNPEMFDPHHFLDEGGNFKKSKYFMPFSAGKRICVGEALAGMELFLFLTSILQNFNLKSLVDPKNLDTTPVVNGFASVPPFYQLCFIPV
CYP3A4, sequence (P08684 whole entry): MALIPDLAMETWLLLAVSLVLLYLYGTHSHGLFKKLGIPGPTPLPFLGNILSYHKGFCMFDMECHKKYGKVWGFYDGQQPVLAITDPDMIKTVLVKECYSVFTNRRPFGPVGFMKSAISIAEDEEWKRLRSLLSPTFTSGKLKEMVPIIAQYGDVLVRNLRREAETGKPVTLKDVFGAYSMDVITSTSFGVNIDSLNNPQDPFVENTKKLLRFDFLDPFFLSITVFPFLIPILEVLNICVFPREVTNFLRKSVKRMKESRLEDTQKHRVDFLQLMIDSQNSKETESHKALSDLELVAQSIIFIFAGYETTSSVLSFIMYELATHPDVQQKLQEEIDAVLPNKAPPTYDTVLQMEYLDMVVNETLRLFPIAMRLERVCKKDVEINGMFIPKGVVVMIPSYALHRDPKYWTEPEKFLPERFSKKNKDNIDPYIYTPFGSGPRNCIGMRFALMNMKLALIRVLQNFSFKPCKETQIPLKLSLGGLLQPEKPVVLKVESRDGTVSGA
CYP2C19, sequence (P33261 whole entry): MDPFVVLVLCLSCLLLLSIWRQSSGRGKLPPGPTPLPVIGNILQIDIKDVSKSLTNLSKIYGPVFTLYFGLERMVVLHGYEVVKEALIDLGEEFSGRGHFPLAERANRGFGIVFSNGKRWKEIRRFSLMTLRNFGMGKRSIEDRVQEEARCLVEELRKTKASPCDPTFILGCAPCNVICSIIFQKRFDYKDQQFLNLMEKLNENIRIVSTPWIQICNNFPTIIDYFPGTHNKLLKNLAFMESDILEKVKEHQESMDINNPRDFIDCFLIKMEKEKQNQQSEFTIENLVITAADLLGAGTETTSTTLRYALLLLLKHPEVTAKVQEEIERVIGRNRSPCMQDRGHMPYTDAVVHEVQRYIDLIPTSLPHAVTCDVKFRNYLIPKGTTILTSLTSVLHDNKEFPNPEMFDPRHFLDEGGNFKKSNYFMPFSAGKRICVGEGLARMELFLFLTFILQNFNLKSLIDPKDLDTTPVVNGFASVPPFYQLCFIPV
CYP2D6, sequence (P10635 whole entry): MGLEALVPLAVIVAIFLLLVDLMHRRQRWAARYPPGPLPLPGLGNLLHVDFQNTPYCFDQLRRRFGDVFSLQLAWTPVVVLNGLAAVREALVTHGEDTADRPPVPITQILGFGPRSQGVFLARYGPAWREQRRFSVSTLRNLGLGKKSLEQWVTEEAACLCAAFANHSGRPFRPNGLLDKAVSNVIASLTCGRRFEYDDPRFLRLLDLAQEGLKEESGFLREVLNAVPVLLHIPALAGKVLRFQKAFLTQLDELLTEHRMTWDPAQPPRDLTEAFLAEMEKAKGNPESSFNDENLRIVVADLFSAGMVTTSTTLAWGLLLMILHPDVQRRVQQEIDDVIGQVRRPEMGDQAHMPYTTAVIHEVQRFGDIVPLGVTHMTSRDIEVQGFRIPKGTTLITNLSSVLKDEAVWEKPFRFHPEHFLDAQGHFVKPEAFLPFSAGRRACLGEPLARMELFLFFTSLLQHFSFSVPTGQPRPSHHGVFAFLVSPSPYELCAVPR
SHP2 enzyme, sequence (Q06124 whole entry): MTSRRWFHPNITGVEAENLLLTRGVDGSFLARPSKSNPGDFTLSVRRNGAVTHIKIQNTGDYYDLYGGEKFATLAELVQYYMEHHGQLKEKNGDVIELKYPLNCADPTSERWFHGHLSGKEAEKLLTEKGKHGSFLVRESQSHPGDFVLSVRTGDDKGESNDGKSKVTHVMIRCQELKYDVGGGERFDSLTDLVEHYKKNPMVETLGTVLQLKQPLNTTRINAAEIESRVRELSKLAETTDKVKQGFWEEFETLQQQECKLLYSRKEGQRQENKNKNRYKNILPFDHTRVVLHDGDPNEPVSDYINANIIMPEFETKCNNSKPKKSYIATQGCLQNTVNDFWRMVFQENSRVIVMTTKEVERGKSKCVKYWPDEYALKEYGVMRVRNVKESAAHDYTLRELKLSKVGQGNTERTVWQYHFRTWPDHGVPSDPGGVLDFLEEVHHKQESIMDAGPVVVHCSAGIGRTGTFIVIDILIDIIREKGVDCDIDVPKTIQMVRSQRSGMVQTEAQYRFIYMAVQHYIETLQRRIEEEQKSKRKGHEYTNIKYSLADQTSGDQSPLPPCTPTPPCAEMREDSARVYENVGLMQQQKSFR
CYP1A2, sequence (P05177 whole entry): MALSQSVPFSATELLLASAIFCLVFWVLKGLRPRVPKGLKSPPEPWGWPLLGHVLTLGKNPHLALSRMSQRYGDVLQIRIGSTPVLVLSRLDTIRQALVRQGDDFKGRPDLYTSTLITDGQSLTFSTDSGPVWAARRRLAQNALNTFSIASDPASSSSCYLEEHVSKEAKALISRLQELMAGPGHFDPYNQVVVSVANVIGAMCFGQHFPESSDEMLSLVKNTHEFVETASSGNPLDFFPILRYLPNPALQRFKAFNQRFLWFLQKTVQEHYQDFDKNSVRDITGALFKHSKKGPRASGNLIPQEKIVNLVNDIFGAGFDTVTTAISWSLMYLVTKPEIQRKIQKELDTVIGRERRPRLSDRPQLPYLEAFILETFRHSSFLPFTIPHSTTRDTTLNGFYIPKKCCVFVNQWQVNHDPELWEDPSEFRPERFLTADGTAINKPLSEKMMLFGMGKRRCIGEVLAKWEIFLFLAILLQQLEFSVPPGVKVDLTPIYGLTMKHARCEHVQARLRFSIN

As for `Cc1nc(N2CCC3(CC2)Cc2ccccc2[C@H]3N)n2ccnc2c1Sc1ccnc(N)c1Cl` [Example 1, (S)-1′-(8-((2-amino-3-chloropyridin-4-yl)thio)-7-methylimidazo [1,2-c]pyrimidin-5-yl)-1,3-dihydrospiro [indene-2,4′-piperidine]-1-amine], the IC50 is 4.4 nM at SHP2 enzyme; 11 nM in the series on MV4-11 leukemia cells; more than 25 µM against CYP1A2; more than 25 µM on CYP2C19; more than 25 µM at CYP2C9; more than 25 µM against CYP2D6. Besides, the IC50 at CYP3A4 was more than 25 µM. The AUC in series [1] (Beagle Dog, 5 mg/kg) was 18200; in series [1] (Mouse, 5 mg/kg), 5840; in series [1] (Rat, (so in the source)), 3540. Moreover, the bioavailability was determined as 162% in series [1] (Beagle Dog, 5 mg/kg); 61% in series [1] (Mouse, 5 mg/kg); 64% in series [1] (Rat, 5 g/kg (so in the source)). In addition, the half-life in series [1] (Beagle Dog, 5 mg/kg) is 654 min; in series [1] (Mouse, 5 mg/kg), 708 min; in series [1] (Rat, 5 g/kg (so in the source)), 1340 min. Also, the Cmax in series [1] (Beagle Dog, 5 mg/kg) is 907 nM; in series [1] (Mouse, 5 mg/kg), 306 nM; in series [1] (Rat, 5 g/kg (so in the source)) it was 211 nM.
With `Nc1nccc(Sc2c(N)nc(N3CCC4(CC3)Cc3ccccc3[C@H]4N)n3ccnc23)c1Cl` [Example 4, (S)-1′-(7-amino-8-((2-amino-3-chloropyridin-4-yl)thio)imidazo [1,2-c]pyrimidin-5-yl)-1,3-dihydrospiro [indene-2,4′-piperidine]-1-amine], the IC50 is 1.9 nM at SHP2 enzyme; 4.7 nM in the series on MV4-11 leukemia cells; more than 25 µM on CYP1A2; more than 25 µM at CYP2C19; more than 25 µM against CYP2C9; more than 25 µM against CYP2D6. Also, on CYP3A4, the IC50 was more than 25 µM. The AUC in series [1] (Mouse, 5 mg/kg) stood at 557. Also, the bioavailability in series [1] (Mouse, 5 mg/kg) is 20%. In series [1] (Mouse, 5 mg/kg), the half-life was 654 min. Moreover, in series [1] (Mouse, 5 mg/kg), the Cmax worked out at 79 nM.
